{"source": "a melting point compilation (Tetko et al.; mined from patent text by program, amines drawn as free bases though some values may be those of a salt)", "data": [{"units": {"melting point": "°C"}, "values": [{"compound": "COc1nc(C)c(C)nc1N(C)C(=O)N1CCN(c2cc(Cl)cc(Cl)c2)CC1", "melting point": "97 to 99"}, {"compound": "O=C(NCc1ccc(Cl)cc1)c1cn(CCN2CCCC2)c2sc(CN3CCOCC3)cc2c1=O", "melting point": "178 to 180"}, {"compound": "CCNC(=O)Nc1nc2cc(-c3ccc(N(C)C)nc3)ccn2n1", "melting point": "285 to 290"}, {"compound": "FC(F)(F)COc1ccc(OCc2ccccc2)cc1", "melting point": "72 to 74"}, {"compound": "COc1ccc(C(=C/C=C/C(=O)NCCCc2ccncc2)c2ccc(OC)cc2)cc1", "melting point": "90 to 92"}, {"compound": "COc1cc(OC)c(-c2nccs2)cc1/C=C/C(=O)c1ccc(C(=O)O)cc1", "melting point": "> 260"}, {"compound": "CC(=O)CN1CCc2c(c(=O)oc3cc(C)ccc23)C1", "melting point": "128 to 129"}, {"compound": "CCCCCCCCCCC[C@H](CC(=O)N[C@@H](CO)C(=O)OCc1ccccc1)OC(=O)CCCCCCCC", "melting point": "52 to 53"}, {"compound": "O=c1[nH]c(=O)n(C2CC2)c2c(OC(F)F)c(F)ccc12", "melting point": "215 to 221"}, {"compound": "CCCCS(=O)(=O)N(C(=O)OC(C)(C)C)c1cc(OC[C@@H]2CO2)ccc1OCc1ccccc1", "melting point": "87 to 89"}, {"compound": "CCC(CC)c1nn(-c2ccc(C(F)(F)F)cn2)cc1CCCOc1c(CC(=O)O)cccc1OC", "melting point": "100 to 101"}, {"compound": "CCOC(=O)C1=C(C(F)(F)F)Nc2n[nH]cc2C1c1ccccc1OC", "note": "(configuration not stated)", "melting point": "144 to 146"}, {"compound": "Cc1ccc(-c2nc(Cc3cccc(C=O)c3)c(C)o2)cc1", "melting point": "98 to 99"}, {"compound": "COc1cccc2c(=O)n3c(cc12)S(=O)(=O)CCC3", "melting point": "251 to 252"}, {"compound": "COC(=O)c1cc(OC)c2ccccc2c1OC", "melting point": "48 to 50"}, {"compound": "CN1CCN(Cc2cc(C(=O)c3cccs3)cc(C(C)(C)C)c2O)CC1", "melting point": "118 to 119"}, {"compound": "CCCCC(O)CN1N=CCCC1c1ccc(F)cc1", "note": "(configuration not stated)", "melting point": "75 to 77"}, {"compound": "C=C(c1ccc(OC)cc1)c1sc(C)nc1C", "melting point": "139 to 140"}, {"compound": "FC(F)(F)Sc1c(-c2ccc(Cl)cc2)[nH]c(Br)c1Br", "melting point": "107 to 113"}, {"compound": "CC(=O)CCSc1cc(C(C)(C)C)c(O)c(C(C)(C)C)c1", "melting point": "79 to 81"}, {"compound": "Cc1cc2c(cc1C(F)(F)F)N(c1ccc(C(=O)O)cc1)CCC[C@@H]2N(Cc1cc(C(F)(F)F)cc(C(F)(F)F)c1)c1nnn(C)n1", "melting point": "101 to 105"}, {"compound": "O=C(O)C=C[C@H](Cc1ccc(-c2ccccc2)cc1)NCP(=O)(O)O", "melting point": "231 to 233"}, {"compound": "CCC[C@H](N[C@@H](C)C(=O)O)C(=O)OCC", "melting point": "153 to 154"}, {"compound": "CC(=O)NCc1ccc(C(C)O)cc1", "note": "(configuration not stated)", "melting point": "61 to 62"}, {"compound": "N#CC(O)C1(F)CCN(C(=O)c2ccc(F)c(Cl)c2)CC1", "note": "(configuration not stated)", "melting point": "139 to 140"}, {"compound": "COc1ccc(C(CC(=O)O)c2ccc(OC)cc2)cc1", "melting point": "132 to 134"}, {"compound": "O=C1C2=C(CCCC2)C(=O)N1c1c(F)cc(Cl)c2c1CC(CO)O2", "note": "(configuration not stated)", "melting point": "193 to 195"}, {"compound": "CC(C)(C)c1cc(=O)o[nH]1", "melting point": "110 to 115"}, {"compound": "CC(=O)CC(=O)Nc1cccc(NC(C)=O)c1", "melting point": 107}, {"compound": "CCCSC(=S)N1Cc2[nH]c3ccccc3c2CC1CO", "note": "(configuration not stated)", "melting point": "130 to 131"}, {"compound": "CCC1c2ccc(C=O)n2-c2ccc(F)cc2N1S(=O)(=O)c1ccc(O)c(C)c1", "note": "(configuration not stated)", "melting point": "192 to 194"}, {"compound": "CCN(C1CC(C)(C)Oc2ccc(OCc3ccccc3)cc21)S(C)(=O)=O", "note": "(configuration not stated)", "melting point": "104 to 106"}, {"compound": "Cc1cc2cc(CN3CCCC3)cnc2cc1NC(=O)c1ccc(-c2ccc(Cl)cc2)cc1", "melting point": "214 to 217"}, {"compound": "CC[C@H]1[C@@H](O)C(F)(F)C(=O)N1c1ccc(C#N)c(OC)c1", "melting point": "161 to 164"}, {"compound": "O=C(c1ccccc1)N(N=Cc1ccccc1)c1ccccc1F", "melting point": "97 to 99"}, {"compound": "CCCc1c[nH]nc1OCc1ccc2ccccc2n1", "melting point": "94 to 95"}, {"compound": "CC(C)(C)OC(=O)COc1ccc2sc(C(=O)Nc3ccccc3NC(=O)OC(C)(C)C)cc2c1", "melting point": 166}, {"compound": "O=C(c1cccc(Br)c1)C(Br)C(Br)c1cccc(Br)c1", "note": "(configuration not stated)", "melting point": "159 to 160"}, {"compound": "O=c1[nH]c2cc(OCCN3CCC(Cc4ccccc4)CC3)ccc2o1", "melting point": "176 to 177"}, {"compound": "COC(=O)C[C@H](O)C[C@H](O)C=Cc1c(-c2ccc(F)cc2)c(-c2ccccc2)c(C(=O)NCc2ccc(F)cc2)n1C(C)C", "melting point": "68 to 69"}, {"compound": "COC(=O)[C@@H]1CCCN1C(=O)C[C@H]1CCc2ccccc2C1", "melting point": "62 to 64"}, {"compound": "COc1ccc2c(n1)NC(C)(C)C(=O)N2", "melting point": "194 to 195"}, {"compound": "Oc1cccc(C2CCCN2Cc2ccncc2)c1", "note": "(configuration not stated)", "melting point": 138}, {"compound": "Cc1cc(=O)n(-c2ccccc2)c2[nH]n(-c3ccccc3)c(=O)c12", "melting point": "145 to 147"}, {"compound": "CCOCC(C)Oc1ccc(COc2cnn(C(C)(C)C)c(=O)c2Cl)cc1", "note": "(configuration not stated)", "melting point": "72.3 to 73.1"}, {"compound": "COC(Cn1cncn1)(c1ccc(Cl)cc1)C(C)(C)C1CC1", "note": "(configuration not stated)", "melting point": "87 to 89"}, {"compound": "Nc1cc(F)c(-n2ccc(=O)cc2)cc1N", "melting point": "227 to 230"}, {"compound": "COC(=O)C(Cc1ccc(OCCn2ccc3cccnc32)cc1)C(=O)O", "note": "(configuration not stated)", "melting point": "120 to 122"}, {"compound": "Cc1sc(CCc2ccc(C=CC=O)cc2)nc1-c1ccccc1", "melting point": "94 to 95"}, {"compound": "COC(=O)c1cccn2c(C(=O)c3ccc(N4C[C@H](CNC(C)=O)OC4=O)cc3)cnc12", "melting point": "202 to 204"}, {"compound": "Cc1ccnc2nc(NS(=O)(=O)c3ccccc3Cl)nn12", "melting point": "268 to 269"}, {"compound": "CC(Oc1ccc(Oc2ccc(C(F)(F)F)cc2)cc1)C(=O)O", "note": "(configuration not stated)", "melting point": "138 to 140"}, {"compound": "NS(=O)(=O)c1ccc(N2CCN(CCCC3OCCc4ccccc43)CC2)cc1", "note": "(racemic)", "melting point": "177 to 178"}, {"compound": "COC(=O)C1CC(Oc2ccc([N+](=O)[O-])cc2)CN1C(=O)C1(C)CCc2c(C)c(O)c(C)c(C)c2O1", "note": "(configuration not stated)", "melting point": "103 to 105"}, {"compound": "COc1cc(Cl)ccc1C(C)=O", "melting point": 55}, {"compound": "COC(=O)c1ccc(C(C)(O)c2cc3cc(Cl)ccc3n2S(=O)(=O)c2ccc(C(C)C)cc2)cc1", "note": "(configuration not stated)", "melting point": 163}, {"compound": "O=[N+]([O-])c1ccc2c(c1)ncn2-c1cccc(-c2nccs2)c1", "melting point": "251 to 260"}, {"compound": "O=c1[nH]c2ccccc2n1CCN1CCN(c2ccc(O)c(C(F)(F)F)c2)CC1", "melting point": "> 250"}, {"compound": "CC1C(=O)Oc2cc(N3CCOCC3)ccc21", "note": "(configuration not stated)", "melting point": "118 to 121"}, {"compound": "CCOC(=O)c1nn(Cc2ccc(OC)c(OC)c2)c2cc(OC)c(OC)cc12", "melting point": "138 to 141"}, {"compound": "CN(c1cccc2cc(C3=NCC(C)(CN4CCN(S(C)(=O)=O)CC4)S3)[nH]c12)S(=O)(=O)c1cccs1", "note": "(configuration not stated)", "melting point": "209 to 210"}, {"compound": "CCCCCCCC1=CC(=O)N(c2ccccc2)C1(O)CBr", "note": "(configuration not stated)", "melting point": "152 to 154"}, {"compound": "COc1ccc2nc(CN(CCN(Cc3ccc4cc(OC)ccc4n3)Cc3ccc4cc(OC)ccc4n3)Cc3ccc4cc(OC)ccc4n3)ccc2c1", "melting point": "168 to 170"}, {"compound": "CC1=C(C)C(Cc2csc3ccccc23)N(C)C=C1", "note": "(configuration not stated)", "melting point": "185 to 190"}, {"compound": "COC(=O)[C@H](O)[C@@H](N)c1ccc(F)cc1", "melting point": 105}, {"compound": "O=[N+]([O-])c1cc(NCCO)ccc1NCC(F)(F)F", "melting point": "93 to 95"}, {"compound": "CC(=O)OC(n1cc(C#N)c(-c2cccc(Cl)c2Cl)c1)C(Cl)(Cl)Cl", "note": "(configuration not stated)", "melting point": "111 to 113"}, {"compound": "OC(c1nccn1CCc1ccccc1)C1CCNCC1", "note": "(configuration not stated)", "melting point": 145}, {"compound": "Cc1nc2c(O)nc3ccccc3c2n1C", "melting point": "> 300"}, {"compound": "CCCCCCCCCCCCCCCCCCNC(=O)OCC(CNS(=O)(=O)CCCI)NC(=O)OCCCC", "note": "(configuration not stated)", "melting point": "96 to 98"}, {"compound": "CCOC(=O)c1c(OCN2C(=O)c3c(C(C)C)cc(OC)cc3S2(=O)=O)nc2ncccn2c1=O", "melting point": "189 to 191"}, {"compound": "CNC(=O)c1ncc2[nH]c3cccc(Oc4ccc(Cl)cc4)c3c2c1COC", "melting point": 236}]}]}
